# In patent publication US20060116419A1, “Nf-kb inhibitors” (priority 2002, published 2006):
# What was measured:
# IL-8 production = experiment: Inhibition of IL-8 production through inhibition of NF-κB; assay type: cell-based; details: through the inhibition of NF-κB
# Description: (§1) Effect of IKK-β inhibition on human monocyte stimulated eicosanoid and cytokine production was assessed as follows: Monocytes were isolated from heparinized whole blood by double gradient centrifugation as previously described. Isolated monocyte enriched PBMCs were then adhered to 24 well culture plates at 2×10^6 cells/mL in RPMI 1640 10% FBS (Hyclone, Logan, Utah) for 2 h. to further enrich the monocyte population. The media was then removed, cells washed once with RPMI 1640, and 1 mL RPMI 1640 10% FBS was added to the wells. Test compounds are added to the wells with a final vehicle concentration of 0.05% DMSO. Monocytes were activated by the addition of 200 ng/mL endotoxin (LPS; E. coli serotype 026:B6)(Sigma, St. Louis, Mo.) and incubated for 24 hrs. Cell-free supernates were analyzed by ELISA for TNF-α (EIA developed at SB), PGE2 (Cayman Chemical, Ann Arbor, Mich.), and IL-8 and IL-6 Biosource International, Camarillo, Calif.). Viability of the cells was determined by trypan blue exclusion.
# [1] = Oral bioavailability in rat; assay type: in vivo
# [2] = In vivo DMPK profile in preclinical species; details: preclinical species tested, compared with analog lacking the 4′-F group
# IKK-β = target: T1, IKK-β (Homo sapiens, UniProt O14920); experiment: IKK-β kinase assay (phosphorylation of N-terminal fragment of IκB-α); assay type: biochemical
# T1 construct: GST; made in house
# T1 sequence (O14920 1-756): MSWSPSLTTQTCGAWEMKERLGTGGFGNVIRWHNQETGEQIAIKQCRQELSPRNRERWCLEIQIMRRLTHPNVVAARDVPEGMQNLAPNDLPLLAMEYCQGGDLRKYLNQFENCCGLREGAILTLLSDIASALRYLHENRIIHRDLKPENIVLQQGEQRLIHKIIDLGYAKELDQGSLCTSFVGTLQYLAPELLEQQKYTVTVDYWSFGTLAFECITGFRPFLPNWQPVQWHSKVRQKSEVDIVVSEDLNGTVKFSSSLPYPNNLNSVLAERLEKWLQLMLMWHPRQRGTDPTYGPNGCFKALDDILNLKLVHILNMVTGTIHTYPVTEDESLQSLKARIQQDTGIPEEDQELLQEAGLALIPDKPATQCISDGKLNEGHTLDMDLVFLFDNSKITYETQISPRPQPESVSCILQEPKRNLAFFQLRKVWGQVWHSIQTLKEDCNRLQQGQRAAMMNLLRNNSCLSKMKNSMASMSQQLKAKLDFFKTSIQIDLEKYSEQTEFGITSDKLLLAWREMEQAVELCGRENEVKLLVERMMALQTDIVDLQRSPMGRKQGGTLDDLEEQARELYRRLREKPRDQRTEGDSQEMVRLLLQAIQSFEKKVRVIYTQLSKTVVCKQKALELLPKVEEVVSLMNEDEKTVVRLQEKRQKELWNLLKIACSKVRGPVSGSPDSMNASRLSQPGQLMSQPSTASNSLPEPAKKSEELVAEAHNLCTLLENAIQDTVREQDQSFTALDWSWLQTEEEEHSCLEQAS
# Description: IKK-β was expressed as a GST-tagged protein, and its activity was assessed in a 96-well scintillation proximity assay (SPA). Briefly, IKK-β was diluted in assay buffer as described above (20 nM final), with various concentrations of compound or DMSO vehicle, 240 nM ATP and 200 nCi [γ-^33P]-ATP (10 mCi/mL, 2000 Ci/mmol; NEN Life Science Products, Boston, Mass.). The reaction was started with the addition of a biotinylated peptide comprising amino acids 15-46 of IκB-α (American Peptide) to a final concentration of 2.4 μM, in a total volume of 50 uL. The sample incubated for one hour a 30° C., followed by the addition of 150 uL of stop buffer (PBS w/o Ca^2+, Mg^2+, 0.1% Triton X-100 (v/v), 10 mM EDTA) containing 0.2 mg streptavidin-coated SPA PVT beads (Amersham Pharmacia Biotech, Piscataway, N.J.). The sample was mixed, incubated for 10 min. at room temperature, centrifuged (1000×g, 2 minutes), and measured on a Hewlett-Packard TopCount.
# [3] = Oral bioavailability in mouse; assay type: in vivo
# [4] = system: LPS-stimulated human monocytes; experiment: Pro-inflammatory mediator production from LPS-stimulated human monocytes; assay type: cell-based
# Description: as §1
# [5] = system: human primary synovial fibroblasts; experiment: Mediator production by stimulated human primary synovial fibroblasts; assay type: cell-based
# Description: The effect of IKK-β inhibitors on primary synovial fibroblast mediator production was assesses as follows: Primary cultures of human RSF were obtained by enzymatic digestion of synovium obtained from adult patients with rheumatoid arthritis as previously described (Roshak et al., 1996b). Cells were cultured in Earl's Minimal Essential Medium (EMEM) which contained 10% fetal bovine serum (FBS), 100 units/ml penicillin and 100 μg/ml streptomycin (GIBCO, Grand Island, N.Y.), at 37° C. and 5% CO2. Cultures were used at passages 4 through 9 in order to obtain a more uniform type B fibroblast population. For some studies, fibroblasts were plated at 5×10^4 cells/mL in 16 mm (diameter) 24 well plates (Costar, Cambridge, Mass.). Cells (70-80% confluence) were exposed to IL-1β (1 ng/mL) (Genzyme, Cambridge, Mass.) for the designated time. Drugs in DMSO vehicle (1%) were added to the cell cultures 15 minutes prior to the addition of IL-1. Studies were conducted 3-4 times using synovial cells from different donors. RSF cellular extracts were prepared from cells treated as described above. Briefly, human RSF were removed by trypsin/EDTA, washed, and harvested by centrifugation. Cellular extracts were prepared as previously described (Dignam et al., 1983; Osborn, et al., 1989). Briefly, at the end of the incubation period the cells (1×10^7 cells) were washed 2× in PBS without Ca^2+ and Mg^2+. […]
# IκB-α = experiment: Degradation of IκB-α in cells activated with pro-inflammatory stimuli (Western blot); assay type: cell-based; details: human monocytes and other mammalian cells; activation with pro-inflammatory stimuli (e.g. TNF-α, LPS)
# Description: NF-κB activity may also be measured in an electrophoretic mobility shift assay (EMSA) to assess the presence of NF-κB protein in the nucleus. The cells of interest are cultured to a density of 1×10^6/mL. The cells are harvested by centrifugation, washed in PBS without Ca^2+ and Mg^2+ and resuspended in PBS with Ca^2+ and Mg^2+ at 1×10^7 cells/mL. To examine the effect of compound on the activation of NF-κB, the cell suspensions are treated with various concentrations of drug or vehicle (DMSO, 0.1%) for 30 min. at 37° C. prior to stimulation with TNF-α (5.0 ng/mL) for an additional 15 min. Cellular and nuclear extracts are prepared follows. Briefly, at the end of the incubation period the cells (1×10^7 cells) are washed 2× in PBS without Ca^2+ and Mg^2+. The resulting cell pellets are resuspended in 20 uL of Buffer A (10 mM Hepes (pH 7.9), 10 mM KCl, 1.5 mM MgCl2, 0.5 mM dithiothreitol (DTT) and 0.1% NP-40) and incubated on ice for 10 min. […] All samples are stored at −80° C. until analyzed. The protein concentration of the extracts is determined according to the method of Bradford (Bradford, 1976) with BioRad reagents.
# The effect of compounds on the phosphorylation of IκB may be monitored in a Western blot. […] Immunoreactive bands are detected using the Enchanced Chemiluminescence (ECL) assay system (Amersham Corp., Arlington Heights, Ill.).
# NF-κB = experiment: Nuclear translocation of NF-κB in activated cells (EMSA); assay type: cell-based; details: human monocytes and other mammalian cells; activation with pro-inflammatory stimuli (e.g. TNF-α, LPS)
# Description: NF-κB activity may also be measured in an electrophoretic mobility shift assay (EMSA) to assess the presence of NF-κB protein in the nucleus. The cells of interest are cultured to a density of 1×10^6/mL. The cells are harvested by centrifugation, washed in PBS without Ca^2+ and Mg^2+ and resuspended in PBS with Ca^2+ and Mg^2+ at 1×10^7 cells/mL. To examine the effect of compound on the activation of NF-κB, the cell suspensions are treated with various concentrations of drug or vehicle (DMSO, 0.1%) for 30 min. at 37° C. prior to stimulation with TNF-α (5.0 ng/mL) for an additional 15 min. Cellular and nuclear extracts are prepared follows. Briefly, at the end of the incubation period the cells (1×10^7 cells) are washed 2× in PBS without Ca^2+ and Mg^2+. The resulting cell pellets are resuspended in 20 uL of Buffer A (10 mM Hepes (pH 7.9), 10 mM KCl, 1.5 mM MgCl2, 0.5 mM dithiothreitol (DTT) and 0.1% NP-40) and incubated on ice for 10 min. The nuclei are pelleted by microcentrifugation at 3500 rpm for 10 min at 4° C. […] All samples are stored at −80° C. until analyzed. The protein concentration of the extracts is determined according to the method of Bradford (Bradford, 1976) with BioRad reagents.
# The effect of compounds on transcription factor activation is assessed in an electrophoretic mobility shift assay (EMSA) using nuclear extracts from treated cells as described above. […]
smiles,measurement,setting,value
"NC(=O)Nc1sc(-c2ccc(F)cc2)cc1C(N)=O [Formula I, 5-(4-fluoro-phenyl)-2-ureido-thiophene-3-carboxylic acid amide]",inhibition of IL-8 production,IL-8 production,has been demonstrated
same,oral bioavailability,[1],orally bioavailable
same,DMPK profile relative to the analog lacking the 4′-F group,[2],significantly improved DMPK profile
same,inhibition of phosphorylation of the N-terminal fragment of IκB-α by IKK-β,IKK-β,inhibit the phosphorylation of the N-terminal fragment of IκB-α by IKK-β
same,IKK-2 inhibitory activity relative to the analog lacking the 4′-F group,IKK-β; compared with analog lacking the 4′-F group,comparable IKK-2 inhibitory activity
same,oral bioavailability,[3],orally bioavailable
same,pro-inflammatory mediator production,[4],inhibits pro-inflammatory mediator production
same,pro-inflammatory mediator production,[5],inhibits pro-inflammatory mediator production
same,degradation of IκB-α,IκB-α,blocks the degradation of IκB-α
same,nuclear translocation of NF-κB,NF-κB,blocks
